This test has as its target T1, Lysosomal acid glucosylceramidase (Homo sapiens, UniProt P04062).
T1 sequence (P04062 whole entry): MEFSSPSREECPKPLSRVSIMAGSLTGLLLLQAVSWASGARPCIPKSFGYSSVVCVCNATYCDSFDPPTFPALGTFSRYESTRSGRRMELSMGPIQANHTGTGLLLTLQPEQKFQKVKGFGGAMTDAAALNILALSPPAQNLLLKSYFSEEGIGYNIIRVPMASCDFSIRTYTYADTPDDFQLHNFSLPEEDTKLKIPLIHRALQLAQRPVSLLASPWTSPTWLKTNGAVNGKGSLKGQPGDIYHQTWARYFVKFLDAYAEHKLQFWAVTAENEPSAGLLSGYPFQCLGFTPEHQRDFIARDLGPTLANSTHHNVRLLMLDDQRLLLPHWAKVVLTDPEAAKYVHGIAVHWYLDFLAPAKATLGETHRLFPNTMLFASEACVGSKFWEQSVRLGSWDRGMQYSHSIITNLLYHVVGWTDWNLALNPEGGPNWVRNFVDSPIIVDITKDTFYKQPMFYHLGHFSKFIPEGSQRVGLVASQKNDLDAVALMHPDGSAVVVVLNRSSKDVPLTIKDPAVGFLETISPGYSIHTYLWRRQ

By Ki is commonly meant the dissociation constant of the complex between target and ligand, obtained from inhibition or displacement.

Description: The reaction solution consisted of 25 μL of 6 mM 4-methylumbelliferone-β-D glucopyranoside in 10% DMSO in the same buffer, 12.5 μL of enzyme and 12.5 μL of various concentrations of test compound diluted in buffer. […] The reaction was initiated by addition of enzyme and allowed to proceed for 20 min at 37° C. to assess GCase activity. […] IC50 values were determined by fitting the data to a log [inhibitor concentration] versus response curve using GraphPad Prism.

In the case of `CCCC1(CCC)NC[C@@H](O)[C@H](O)[C@H]1CO`, the affinity corresponds to a Ki of 1400 nM.

(Values after ChEMBL document CHEMBL5726543, “Glucocerebrosidase modulators and uses thereof” (2017).)
